{
  "source": "patent US20240247015A1",
  "about": "“PHOSPHORUS DERIVATIVES AS NOVEL SOS1 INHIBITORS” (BAYER AKTIENGESELLSCHAFT, priority 2021, published 2024)",
  "data": [
    {"molecular_target": "interaction of human SOS1 (SOS1) with human K-RasG12C (Homo sapiens (Human), UniProt Q07889)", "sequence (Q07889 564-1049 limits assumed)": "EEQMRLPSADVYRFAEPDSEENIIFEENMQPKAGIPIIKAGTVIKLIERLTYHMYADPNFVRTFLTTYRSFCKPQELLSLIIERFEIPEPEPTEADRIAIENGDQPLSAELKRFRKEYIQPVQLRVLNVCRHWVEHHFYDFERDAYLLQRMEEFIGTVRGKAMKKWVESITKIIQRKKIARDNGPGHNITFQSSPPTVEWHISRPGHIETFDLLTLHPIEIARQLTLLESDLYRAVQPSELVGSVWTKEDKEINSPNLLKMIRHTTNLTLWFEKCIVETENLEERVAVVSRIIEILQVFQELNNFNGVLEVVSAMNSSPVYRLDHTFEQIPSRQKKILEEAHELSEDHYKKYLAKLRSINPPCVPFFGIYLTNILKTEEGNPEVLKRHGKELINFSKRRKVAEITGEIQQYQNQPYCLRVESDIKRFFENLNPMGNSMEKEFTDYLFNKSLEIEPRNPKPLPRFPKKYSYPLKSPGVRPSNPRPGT", "assay": "Biochemical assay: hK-RasG12C interaction assay with hSOS1 (HTRF)", "format": "binding", "settings": "GST-hK-RasG12C with His-hSOS1, 60 min incubation at 20° C., mean, read-out: K-RasG12C - SOS interaction assay IC50 (mean)", "method": "Biochemical Assay: hK-RasG12C Interaction Assay with hSOS1 This assay quantifies the equilibrium interaction of human SOS1 (SOS1) with human K-Ras^G12^C (K-RasG12C). Detection of the interaction is achieved by measuring homogenous time-resolved fluorescence resonance energy transfer (HTRF) from antiGST-Europium (FRET donor) bound to GST-K-RasG12C to anti-6His-XL665 bound to His-tagged hSOS1 (FRET-acceptor). The assay buffer containes 5 mM HEPES pH 7.4 (Applichem), 150 mM NaCl (Sigma), […] (Promega), 1 mM DTT (Thermofisher), 0.05% BSA Fraction V, pH 7.0, (ICN Biomedicals), 0.0025% (v/v) Igepal (Sigma) and 100 mM KF (FLUKA). The expression and purification of N-terminally GST-tagged human K-RasG12C (termed GST-hK-RasG12C) and N-terminally His-tagged human SOS1 (termed His10-hSOS1) is described in WO 2019/201848, page 220 line 12-34 and page 222, line 13-25 (expression) and page 222, line 26 to page 223, line 17 (purification). Concentrations of protein batches used are optimized to be within the linear range of the HTRF signal. A Ras working solution is prepared in assay buffer containing typically 10 nM GST-hK-RasG12C and 2 nM antiGST-Eu(K) (Cisbio, France). A SOS1 working solution is prepared in assay buffer containing typically 20 nM His-hSOS1 and 10 nM anti-6His-XL665 (Cisbio, France). An inhibitor control solution is prepared in assay buffer containing nM anti-6His-XL665 without SOS1. Fifty nl of a 100-fold concentrated solution of the test compound in DMSO are transferred into a black microtiter test plate (384 or 1536, Greiner Bio-One, Germany). For this, either a Hummingbird liquid handler (Digilab, MA, USA) or an Echo acoustic system (Labcyte, CA, USA) is used. All steps of the assay are performed at 20° C. A volume of 2.5 μl of the Ras working solution is added to all wells of the test plate using a Multidrop dispenser (Thermo Labsystems). After 2 min preincubation, 2.5 μl of the SOS1 working solution are added to all wells except for those wells at the side of the test plate that are subsequently filled with 2.5 μl of the inhibitor control solution. After 60 min incubation the fluorescence is measured with a Pherastar (BMG, Germany) using the HTRF module (excitation 337 nm, emission 1: 620 nm, emission 2: 665 nm). The ratiometric data (emission 2 divided by emission 1) are normalized using the controls (DMSO=0% inhibition, inhibition control wells with inhibitor control solution=100% inhibition). Compounds are tested in duplicates at up to 11 concentrations (for 20 μM, 5,7 μM, 1,6 μM, 0.47 μM, 0.13 μM, 38 nM, 11 nM, 3.1 nM, 0.89 nM, 0.25 nM and 0.073 nM). IC50 values are calculated by 4-Parameter fitting using a commercial software package (Genedata Screener, Switzerland).", "units": {"IC50": "nM"}, "values": [
      {"smiles": "CCCCC(C)(O)C(F)(F)c1cccc([C@@H](C)Nc2nc(C)nc3cnc(P(C)(C)=O)cc23)c1F", "note": "(mixture of isomers) [Example 23, (2RS)-1-{3-[(1R)-1-{[6-(dimethylphosphoryl)-2-methylpyrido[3,4-d]pyrimidin-4-yl]amino}ethyl]-2-fluorophenyl}-1,1-difluoro-2-methylhexan-2-ol]", "IC50": 12.4},
      {"smiles": "CCc1nc(P(C)(C)=O)cc2c(N[C@H](C)c3cccc(C(F)(F)C(O)CC)c3F)nc(C)nc12", "note": "(mixture of isomers) [Example 38, (2RS)-1-{3-[(1R)-1-{[6-(dimethylphosphoryl)-8-ethyl-2-methylpyrido[3,4-d]pyrimidin-4-yl]amino}ethyl]-2-fluorophenyl}-1,1-difluorobutan-2-ol]", "IC50": 10.7},
      {"smiles": "Cc1nc(N[C@H](C)c2cccc(C(F)(F)[C@@H](C)O)c2F)c2cc(P(C)(C)=O)ncc2n1", "note": "(relative stereo) [Example 113, (2R*)-1-{3-[(1R)-1-{[6-(dimethylphosphoryl)-2-methylpyrido[3,4-d]pyrimidin-4-yl]amino}ethyl]-2-fluorophenyl}-1,1-difluoropropan-2-ol]", "IC50": 7.85},
      {"smiles": "Cc1nc(N[C@H](C)c2cccc(C(F)(F)[C@H](O)C(C)(C)C)c2F)c2cc(P(C)(C)=O)ncc2n1", "note": "(relative stereo) [Example 137, (2R*)-1-{3-[(1R)-1-{[6-(dimethylphosphoryl)-2-methylpyrido[3,4-d]pyrimidin-4-yl]amino}ethyl]-2-fluorophenyl}-1,1-difluoro-3,3-dimethylbutan-2-ol]", "IC50": 4.04},
      {"smiles": "Cc1nc(NC(C)c2ccnc(C(F)(F)F)c2)c2cc(P(C)(C)=O)ncc2n1", "note": "(single isomer, unassigned) [Example 24, 6-(dimethylphosphoryl)-2-methyl-N-{1-[2-(trifluoromethyl)pyridin-4-yl]ethyl}pyrido[3,4-d]pyrimidin-4-amine]", "IC50": "> 20000"},
      {"smiles": "Cc1nc(NC(C)c2ccnc(C(F)(F)F)c2)c2cc(P(C)(C)=O)ncc2n1", "note": "(single isomer, unassigned) [Example 25, 6-(dimethylphosphoryl)-2-methyl-N-{1-[2-(trifluoromethyl)pyridin-4-yl]ethyl}pyrido[3,4-d]pyrimidin-4-amine]", "IC50": 4850},
      {"smiles": "CCC(O)C(F)(F)c1cccc([C@@H](C)Nc2nc(C)nc3cnc(P(C)(C)=O)cc23)c1F", "note": "(single isomer, unassigned) [Example 65, (2R*)-1-{3-[(1R)-1-{[6-(dimethylphosphoryl)-2-methylpyrido[3,4-d]pyrimidin-4-yl]amino}ethyl]-2-fluorophenyl}-1,1-difluorobutan-2-ol]", "IC50": 10.5},
      {"smiles": "Cc1nc(N[C@H](C)c2cccc(C(F)(F)C(O)C(C)C)c2F)c2cc(P(C)(C)=O)ncc2n1", "note": "(single isomer, unassigned) [Example 66, (2R*)-1-{3-[(1R)-1-{[6-(dimethylphosphoryl)-2-methylpyrido[3,4-d]pyrimidin-4-yl]amino}ethyl]-2-fluorophenyl}-1,1-difluoro-3-methylbutan-2-ol]", "IC50": 25.1},
      {"smiles": "CCP(C)(=O)c1cc2c(N[C@H](C)c3cccc(C(F)(F)C(C)(C)O)c3F)nc(C)nc2cn1", "note": "(single isomer, unassigned) [Example 68]", "IC50": 28.2},
      {"smiles": "CCP(C)(=O)c1cc2c(N[C@H](C)c3cccc(C(F)(F)C(C)(C)O)c3F)nc(C)nc2cn1", "note": "(single isomer, unassigned) [Example 69]", "IC50": 19.5},
      {"smiles": "Cc1nc(N[C@H](C)c2cccc(C(F)(F)C(C)(C)O)c2F)c2cc(P(C)(=O)C(C)C)ncc2n1", "note": "(single isomer, unassigned) [Example 71]", "IC50": 35.4},
      {"smiles": "Cc1nc(N[C@H](C)c2cccc(C(F)(F)C(C)(C)O)c2F)c2cc(P(C)(=O)C(C)C)ncc2n1", "note": "(single isomer, unassigned) [Example 72]", "IC50": 24.3},
      {"smiles": "CCP(C)(=O)c1cc2c(N[C@H](C)c3cccc(C(F)(F)C(C)O)c3F)nc(C)nc2cn1", "note": "(single isomer, unassigned) [Example 73, (2R*)-1-{3-[(1R)-1-{{6-[ethyl(methyl)phosphoryl]-2-methylpyrido[3,4-d]pyrimidin-4-yl}amino)ethyl]-2-fluorophenyl}-1,1-difluoropropan-2-ol]", "IC50": 11.3},
      {"smiles": "CCP(C)(=O)c1cc2c(N[C@H](C)c3cccc(C(F)(F)C(C)O)c3F)nc(C)nc2cn1", "note": "(single isomer, unassigned) [Example 74, (2R*)-1-{3-[(1R)-1-{{6-[ethyl(methyl)phosphoryl]-2-methylpyrido[3,4-d]pyrimidin-4-yl}amino)ethyl]-2-fluorophenyl}-1,1-difluoropropan-2-ol]", "IC50": 24.6},
      {"smiles": "CCP(C)(=O)c1cc2c(N[C@H](C)c3cccc(C(F)(F)C(C)O)c3F)nc(C)nc2cn1", "note": "(single isomer, unassigned) [Example 75, (2R*)-1-{3-[(1R)-1-{{6-[ethyl(methyl)phosphoryl]-2-methylpyrido[3,4-d]pyrimidin-4-yl}amino)ethyl]-2-fluorophenyl}-1,1-difluoropropan-2-ol]", "IC50": 15.3},
      {"smiles": "CCP(C)(=O)c1cc2c(N[C@H](C)c3cccc(C(F)(F)C(C)O)c3F)nc(C)nc2cn1", "note": "(single isomer, unassigned) [Example 76, (2R*)-1-{3-[(1R)-1-({6-[ethyl(methyl)phosphoryl]-2-methylpyrido[3,4-d]pyrimidin-4-yl}amino)ethyl]-2-fluorophenyl}-1,1-difluoropropan-2-ol]", "IC50": 21.3},
      {"smiles": "CCP(C)(=O)c1cc2c(N[C@H](C)c3cccc(C(F)(F)C(C)O)c3F)nc(C)nc2cn1", "note": "(single isomer, unassigned) [Example 77, (2R*)-1-{3-[(1R)-1-{{6-[ethyl(methyl)phosphoryl]-2-methylpyrido[3,4-d]pyrimidin-4-yl}amino)ethyl]-2-fluorophenyl}-1,1-difluoropropan-2-ol]", "IC50": 17.8},
      {"smiles": "CCP(C)(=O)c1cc2c(N[C@H](C)c3cccc(C(F)(F)C(C)O)c3F)nc(C)nc2cn1", "note": "(single isomer, unassigned) [Example 78, (2R*)-1-{3-[(1R)-1-{{6-[ethyl(methyl)phosphoryl]-2-methylpyrido[3,4-d]pyrimidin-4-yl}amino)ethyl]-2-fluorophenyl}-1,1-difluoropropan-2-ol]", "IC50": 21.8},
      {"smiles": "Cc1nc(N[C@H](C)c2cccc(C(F)(F)C(C)O)c2F)c2cc(P(C)(=O)C(C)C)ncc2n1", "note": "(single isomer, unassigned) [Example 79, (2R*)-1,1-difluoro-1-{2-fluoro-3-[(1R)-1-({2-methyl-6-[methyl(propan-2-yl)phosphoryl]pyrido[3,4-d]pyrimidin-4-yl}amino)ethyl]phenyl}propan-2-ol]", "IC50": 12.3},
      {"smiles": "Cc1nc(N[C@H](C)c2cccc(C(F)(F)C(C)O)c2F)c2cc(P(C)(=O)C(C)C)ncc2n1", "note": "(single isomer, unassigned) [Example 80, (2R*)-1,1-difluoro-1-{2-fluoro-3-[(1R)-1-({2-methyl-6-[methyl(propan-2-yl)phosphoryl]pyrido[3,4-d]pyrimidin-4-yl}amino)ethyl]phenyl}propan-2-ol]", "IC50": 5.88},
      {"smiles": "Cc1nc(N[C@H](C)c2cccc(C(F)(F)C(C)O)c2F)c2cc(P(C)(=O)C(C)C)ncc2n1", "note": "(single isomer, unassigned) [Example 81, (2R*)-1,1-difluoro-1-{2-fluoro-3-[(1R)-1-({2-methyl-6-[methyl(propan-2-yl)phosphoryl]pyrido[3,4-d]pyrimidin-4-yl}amino)ethyl]phenyl}propan-2-ol]", "IC50": 10.2},
      {"smiles": "Cc1nc(N[C@H](C)c2cccc(C(F)(F)C(C)O)c2F)c2cc(P(C)(=O)C(C)C)ncc2n1", "note": "(single isomer, unassigned) [Example 82, (2R*)-1,1-difluoro-1-{2-fluoro-3-[(1R)-1-({2-methyl-6-[methyl(propan-2-yl)phosphoryl]pyrido[3,4-d]pyrimidin-4-yl}amino)ethyl]phenyl}propan-2-ol]", "IC50": 24.5}
    ]}
  ]
}
